Results published in PMC8233136, “Monomeric bile acids modulate the ATPase activity of detergent-solubilized ABCB4/MDR3” (Journal of Lipid Research, 2021).
Values joined by “and” are separate entries in the source; they are usually repeats but may differ in a detail not shown here. Equal entries are not always repeated.

Tests used:
human ABCB4 [1] = target: T1, human ABCB4 (Homo sapiens, UniProt P21439); assay: ATP hydrolysis (malachite green) of detergent-solubilized, purified ABCB4: modulation of basal ATPase activity; assay type: biochemical; details: for Concentration at which maximal stimulation (plateau) of ATPase activity is reached / EC50 / Emax: 0-1,000 μM; for EC50: stimulation of basal ATPase activity, allosteric sigmoidal fit, read-out: EC50; for Emax: vmax of allosteric sigmoidal fit (Equation 1), basal ABCB4 ATPase activity set to 0%, read-out: Max. Stimulation (%)
T1 construct: made in house; host or cells: Pichia pastoris (chromosomally integrated)
Protocol: (§1) The sodium salts of conjugated and unconjugated bile acids were dissolved in double-distilled water (ddH2O) or 100% DMSO at a concentration of 100 mM. While glyco-/tauro-/cholic acid (G/T/CA), glyco-/tauro-/chenodeoxycholic acid (G/T/CDCA) were dissolved in ddH2O water, glyco-/tauro-/deoxycholic acid (G/T/DCA), glyco/-tauro-/ursodeoxycholic acid (G/T/UDCA) as wells as Nor-UDCA and taurolithocholic acid (TLCA) were dissolved in DMSO. […] Modulation of the ATP hydrolysis by bile acid was determined in a concentration-dependent manner from 0 to 1,000 μM bile acids.
(§2) Analysis of the ATP activity of ABCB4 was performed by determining the amount of released, free inorganic orthophosphate by the malachite green assay ([53], [54], [60]) with minor modifications. The assay was performed in a total volume of 100 μl consisting of reaction buffer (50 mM Tris HCl, pH 7.4 at 37°C, 100 mM NaCl) supplemented with the 2.5 × cmc of FC-16 and 10 mM MgCl2. For determining the effect of DOPC, different bile acids or combinations thereof, 1–5 μL of the corresponding stock solutions (see lipid and bile acid preparation) were added. Five micrograms of ABCB4 or the BODIPY®-labeled sample was used in every reaction sample. Reaction was started by addition of ATP (5 mM f.c.) and performed for 40 min at 37°C. After 0 and 40 min, the reaction was stopped by transferring 25 μl of the reaction mixture into a 96-well plate containing 175 μl of 20 mM ice-cold sulfuric acid. Additionally, a phosphate standard with concentrations raging from 0 to 500 μM was used. Subsequently, inorganic phosphate was stained by adding 50 μl of dye (0.096% (w/v) malachite green, 1.48% (w/v) ammonium molybdate, 0.173% (w/v) Tween-20, and […] sulfuric acid). After incubation for 15 min, the absorption at 595 nm was measured (iMark™ Microplate Reader, BioRad), and the concentrations of phosphate release were calculated based on the slope of the line calculated based on the phosphate standards.
(§3) Basal ATPase activity of ABCB4 was set to 0% and the effect of supplements was calculated as % stimulation or % inhibition of the basal activity, respectively. For determination of kinetic parameters, bile acid concentration was varied and analyzed according to an allosteric sigmoidal fit (Equation 1):(1) v=vmax∗[S]^h/EC50h+[S]^h
Here, v describes the stimulation (%), vmax is the maximal stimulation (%), EC50 represents the half maximal effective concentration, S is the substrate concentration, and h is the Hill coefficient
In case of inhibition, the reduction (%) was plotted against the bile acid concentration and data were analyzed using Equation 2:(2) y=ymin+(ymax−ymin)/1+10^((logIC50−x)∗slope)
Here, ymax is the smallest, and ymin is the highest amount of inhibition, respectively, and x represents the concentration of the inhibitor. The IC50 value is defined as the concentration necessary to obtain 50% inhibition.
In case of both substrate stimulations, followed by substrate inhibition after maximal stimulation was reached, the modulation (%) was plotted against the substrate concertation and data was analyzed using by two fits: First part (stimulation) was as usually fitted using Equation 1. The second part (substrate inhibition) was analyzed by Equation 3 starting at the last point of the plateau:(3) y=ymin+[…]/(1+x/IC50)
Here, ymax is the highest value of the plateau after stimulation is reached, while ymin is the smallest value of y after maximal stimulation was reached.

human ABCB4 [2] = target: T1, human ABCB4; assay: ATP hydrolysis (malachite green) of purified ABCB4 in the presence of 300 μM DOPC (with or without cholesterol); assay type: biochemical; details: for activity at 1000 µM: 1,000 μM bile acid/detergent/BAM + 300 μM DOPC, read-out: Relative ATPase activity in the presence of 300 μM DOPC
Protocol: A sample of purified ABCB4 was incubated with 10-fold molar excess of BODIPY® FL maleimide (BODIPY® FL N-(2-aminoethyl)maleimide, Molecular Probes) at 22°C for 20 min. The reaction was quenched after 20 min by addition of a 20-fold molar excess of dithiothreitol (DTT) at 22°C for 10 min. Qualitative labeling efficiency was analyzed by visualizing a sample after SDS-PAGE by UV excitation.
DOPC was dissolved in chloroform, the solvent was evaporated, and the dried lipid sample was redissolved in ATP hydrolysis reaction buffer (50 mM Tris HCl, pH 7.4 at 37°C, 100 mM NaCl) at a concentration of 25.4 mM following the protocol of Geertsma et al. ([59]). Prior to the addition of the DOPC sample to the ATP hydrolysis assay, it was diluted to 5 mM, sonicated until a clear solution was obtained, and subsequently used at a final concentration of 300 μM. Since chloroform is not suitable for the later ATPase assay and cholesterol at higher concentration is insoluble in water and nearly all solvents, a molar mixture of cholesterol and DOPC was used. This mixture was obtained by adding the required molar ratio of cholesterol to always the same amount of dried DOPC. Afterward, the mixture was treated identical to DOPC only as described above resulting in a final concentration (f.c.) of 300 μM DOPC with 0–1,000 μM cholesterol in the ATPase assay.
as §1, §2, §3

[3] = Critical micelle concentration by Hoechst 33342 fluorescence in ATPase reaction buffer; assay type: physicochemical; details: 50 mM Tris-HCl pH 7.5, 100 mM NaCl, 37°C; no FC-16, MgCl2 or ATP
Protocol: CMC values were determined as described ([61]). […] 96-well plates suitable for fluorescence spectroscopy (Greiner Bio-One, FIA plate, black, flat bottom, medium binding) were used. […] CMCs of the bile acids were determined in ATPase reaction buffer (50 mM Tris-HCl, pH 7.5 (at 37°C), 100 mM NaCl) containing no FC-16, MgCl2, or ATP at 37°C using a Tecan M200 plate reader (Atlantic lab equipment). Bile acids were dissolved either in ddH2O or in 100% DMSO (as stated in “Lipid, cholesterol and bile acid preparation”) at a concentration of 100 mM. […] In case of hydrophobic bile acids, which were dissolved in DMSO, DMSO concentration was adapted to 1% in all wells. […] After background correction, fluorescence data were analyzed using Prism (version 8, GraphPad) with Equation 4:(4) F=Fmax∗(c[BA]−cmc)/(K0.5−cmc)+(c[BA]−cmc)
The measured fluorescence at each bile acid concentration (c[BA]) is represented by F, while Fmax is the maximal fluorescence, K0.5 is the midpoint of the function, and cmc is the critical micelle concentration of the bile acid.

[4] = Hill coefficient of allosteric sigmoidal fit of ATPase stimulation

T1 sequence (P21439 1-1279 isoform P21439-2): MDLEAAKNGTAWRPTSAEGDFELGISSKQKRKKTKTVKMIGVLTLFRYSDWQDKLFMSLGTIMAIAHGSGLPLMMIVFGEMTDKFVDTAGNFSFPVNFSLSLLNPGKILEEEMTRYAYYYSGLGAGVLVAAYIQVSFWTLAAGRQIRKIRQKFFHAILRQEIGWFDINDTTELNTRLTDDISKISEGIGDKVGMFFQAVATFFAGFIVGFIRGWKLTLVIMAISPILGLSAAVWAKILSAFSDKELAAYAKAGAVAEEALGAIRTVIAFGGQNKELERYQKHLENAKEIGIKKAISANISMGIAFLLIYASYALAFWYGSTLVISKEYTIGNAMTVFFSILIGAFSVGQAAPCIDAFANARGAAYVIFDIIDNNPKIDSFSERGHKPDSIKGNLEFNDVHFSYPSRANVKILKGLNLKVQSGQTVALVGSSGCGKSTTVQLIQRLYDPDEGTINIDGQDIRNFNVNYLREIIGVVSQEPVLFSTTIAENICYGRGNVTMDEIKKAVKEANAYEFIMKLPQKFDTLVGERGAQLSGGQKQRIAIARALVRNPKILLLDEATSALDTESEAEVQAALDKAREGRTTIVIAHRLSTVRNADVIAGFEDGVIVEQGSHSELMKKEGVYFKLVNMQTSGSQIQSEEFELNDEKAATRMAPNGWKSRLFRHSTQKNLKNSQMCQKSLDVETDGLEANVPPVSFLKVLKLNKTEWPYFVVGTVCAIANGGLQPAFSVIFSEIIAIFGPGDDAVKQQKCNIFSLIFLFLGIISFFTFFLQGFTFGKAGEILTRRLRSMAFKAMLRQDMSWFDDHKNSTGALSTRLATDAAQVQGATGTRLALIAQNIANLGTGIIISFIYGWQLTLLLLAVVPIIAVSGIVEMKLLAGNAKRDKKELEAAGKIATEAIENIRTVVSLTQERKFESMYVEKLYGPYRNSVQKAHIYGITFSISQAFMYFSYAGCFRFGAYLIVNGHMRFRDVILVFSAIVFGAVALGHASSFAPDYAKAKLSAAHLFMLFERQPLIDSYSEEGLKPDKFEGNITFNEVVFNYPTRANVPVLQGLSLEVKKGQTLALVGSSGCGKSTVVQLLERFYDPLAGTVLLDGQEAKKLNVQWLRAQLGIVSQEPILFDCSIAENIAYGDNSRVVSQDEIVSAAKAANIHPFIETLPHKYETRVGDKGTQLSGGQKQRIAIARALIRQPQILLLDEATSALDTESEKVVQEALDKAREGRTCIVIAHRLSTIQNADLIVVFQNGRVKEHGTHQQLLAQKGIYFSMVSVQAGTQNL

SMILES	Slope (human ABCB4 [1]; [4])	Concentration at which maximal stimulation (plateau) of ATPase activity is reached (human ABCB4 [1]; basal ATPase activity)	EC50 (human ABCB4 [1]) [µM]	Emax (human ABCB4 [1]) [%]	activity at 1000 µM (human ABCB4 [2]; DOPC alone set to 100%) [%]	Critical micelle concentration (cmc) [3]	Increase of ATPase activity compared with UDCA (human ABCB4 [1]; maximal stimulation, side chain shortened by one carbon atom)	ATPase activity in the presence of cholesterol:DOPC 1.5:1 (human ABCB4 [2]; 1,000 μM BAM or Nor-UDCA added to cholesterol:DOPC (1.5:1, 300 μM DOPC), DOPC alone set to 100%) [%]	Reduction of ATPase activity at 100 μM (human ABCB4 [1]; 100 μM) [%]	inhibition at 1000 µM (human ABCB4 [1]; 1,000 μM, 5% DMSO, mixture experiment Fig. 6, read-out: Inhibition of basal ATPase activity by pure bile acid at 1,000 μM) [%]	Concentration at which maximal inhibition is reached (human ABCB4 [1]; basal ATPase activity) [µM]	IC50 (human ABCB4 [1]; inhibition of basal ATPase activity, Equation 2) [µM]	Slope (human ABCB4 [1]; slope of inhibition fit (Equation 2))	Decrease of DOPC-stimulated ATPase activity (human ABCB4 [2]; 1,000 μM + 300 μM DOPC, relative to DOPC alone)
C[C@H](CCC(=O)NCCS(=O)(=O)O)[C@H]1CC[C@H]2[C@@H]3[C@H](O)C[C@@H]4C[C@H](O)CC[C@]4(C)[C@H]3CC[C@]12C [TCDCA, taurochenodeoxycholic acid]	2.6 ± 0.4	approximately 500 μM	169 ± 11	423 ± 15	112 ± 8.2	1.7 mM and 1.7 ± 0.1 mM	–	–	–	–	–	–	–	–
C[C@H](CCC(=O)NCC(=O)O)[C@H]1CC[C@H]2[C@@H]3[C@H](O)C[C@@H]4C[C@H](O)CC[C@]4(C)[C@H]3CC[C@]12C [GCDCA]	3.9 ± 1.5	approximately 150 μM	77.8 ± 7.5	223 ± 10	127 ± 2.8	2.6 mM and 2.6 ± 0.1 mM	–	–	–	–	–	–	–	–
C[C@H](CCC(=O)O)[C@H]1CC[C@H]2[C@@H]3[C@H](O)C[C@@H]4C[C@H](O)CC[C@]4(C)[C@H]3C[C@H](O)[C@]12C [CA, cholic acid]	2.8 ± 0.3	–	390 ± 22.7	310 ± 16.4	117 ± 8.9	2.3 mM and 2.3 ± 0.2 mM	–	–	–	–	–	–	–	–
C[C@H](CCC(=O)NCC(=O)O)[C@H]1CC[C@H]2[C@@H]3[C@H](O)C[C@@H]4C[C@H](O)CC[C@]4(C)[C@H]3C[C@H](O)[C@]12C [GCA]	2.9 ± 0.4	approximately 400 μM	177 ± 9.9	733 ± 24	171 ± 6.9	4.1 mM and 4.1 ± 0.1 mM	–	–	–	–	–	–	–	–
C[C@H](CCC(=O)NCC(=O)O)[C@H]1CC[C@H]2[C@@H]3[C@@H](O)C[C@@H]4C[C@H](O)CC[C@]4(C)[C@H]3CC[C@]12C [GUDCA]	4.5 ± 1.0	–	393	185 ± 13	111 ± 3.1	1.6 mM and 1.6 ± 0.1 mM	–	–	–	–	–	–	–	–
C[C@H](CCC(=O)O)[C@H]1CC[C@H]2[C@@H]3[C@@H](O)C[C@@H]4C[C@H](O)CC[C@]4(C)[C@H]3CC[C@]12C [UDCA, Ursodeoxycholic acid]	4.6 ± 1.3	–	470 ± 34.5	110 ± 10.7	115 ± 22.1	1.3 mM and 1.3 ± 0.1 mM	–	–	–	–	–	–	–	–
C[C@H](CCC(=O)NCCS(=O)(=O)O)[C@H]1CC[C@H]2[C@@H]3[C@@H](O)C[C@@H]4C[C@H](O)CC[C@]4(C)[C@H]3CC[C@]12C [TUDCA]	4.5 ± 1.4	–	267	154 ± 11	88.2 ± 8.3	1.5 mM and 1.5 ± 0.2 mM	–	–	–	–	–	–	–	–
C[C@H](CC(=O)O)[C@H]1CC[C@H]2[C@@H]3[C@@H](O)C[C@@H]4C[C@H](O)CC[C@]4(C)[C@H]3CC[C@]12C [Nor-UDCA, 24-nor-ursodeoxycholic acid]	6.3 ± 1.3	–	476 ± 18.5	195 ± 10.8	373 ± 30	1.8 mM and 1.8 ± 0.1 mM	approximately 85%	380.7 ± 45.6	–	–	–	–	–	–
C[C@H](CCC(=O)NCCS(=O)(=O)O)[C@H]1CC[C@H]2[C@@H]3CC[C@@H]4C[C@H](O)CC[C@]4(C)[C@H]3CC[C@]12C [TLCA, taurolithocholic acid]	–	–	–	–	34.8 ± 21.9	0.14 mM and 0.14 ± 0.03 mM	–	–	36	~50	400	113	−2.7 ± 2.1	approximately 65%
C[C@H](CCC(=O)O)[C@H]1CC[C@H]2[C@@H]3[C@H](O)C[C@@H]4C[C@H](O)CC[C@]4(C)[C@H]3CC[C@]12C [CDCA, chenodeoxycholic acid]	1.8 ± 0.4	–	308 ± 56.8	137 ± 16.8	89.7 ± 1.4	1.5 mM and 1.5 ± 0.1 mM	–	–	–	–	–	–	–	–
